Laboratory results reported in ChEMBL document CHEMBL1127951, “Synthesis and RNA cleaving activities of polyamine derived novel artificial ribonuclease” (Bioorg Med Chem Lett, 1994).

System: Nucleic Acid
Assay: Binding affinity towards calf thymus DNA was determined
Assay type: nucleic-acid assay
Details: Bos taurus

Structure (SMILES)	K
NCCN(CCN)CCNC(=O)c1c2ccccc2nc2ccccc12	150000 M⁻¹
NCCN(CCNC(=O)Cc1c[nH]cn1)CCNC(=O)c1c2ccccc2nc2ccccc12	22000 M⁻¹
NCCC(=O)NCCN(CCNC(=O)Cc1c[nH]cn1)CCNC(=O)c1c2ccccc2nc2ccccc12	16000 M⁻¹
